Laboratory results published in PMC12445440 (Journal of Medical Virology, 2025).

Legend:
IAV = assay: microbe, parasite or virus in culture; format: cell-based; conditions: Influenza A virus, MDCK
ZIKV NS5 [1] = assay: ZIKV protein synthesis by western blot (NS5), Vero E6 cells; format: cell-based, Zika virus; conditions: MOI 1, 1x, 5x, 10x EC50, 48 h
Procedure: (§1) Immunoblotting was performed as described.
(§2) Viral protein levels in cell lysates were analyzed by immunoblotting (Figure 3A,B), while virion release was assessed by quantifying ZIKV RNA in supernatants (Figure 3C).
(§3) Impact of treatment on ZIKV protein synthesis was evaluated on cell extracts analyzed by western blot using anti‐ ZIKV NS5, or anti‐GAPDH as a housekeeping control.

[2] = Cytotoxicity by WST-8, C6/36 cells; format: cell-based; conditions: Aedes albopictus, 95% CI in brackets
Procedure: (§4) Cytotoxic/cytostatic effects were evaluated in uninfected cells by WST‐8 (Orangu, Cell Guidance Systems): 1 × 10^4 cells/well in a 96‐well plate were incubated in the presence of threefold serial dilutions of compounds, from 0.30 to 218 μM, for 48 h. Medium was replaced with 50 μL of 10% WST‐8, in DMEM, 2% FBS. Following a 1‐h incubation at 37°C, optical density (OD) in wells was measured at 450 nm using Varioskan LUX (ThermoFisher Scientific). CC50 was calculated using the formula: %viability=100×(ODcompound/ODuntreated control) where ODcompound and ODuntreated are the OD of the cells treated with compound or DMSO, respectively.

VSV = assay: microbe, parasite or virus in culture; format: cell-based; conditions: Vesicular stomatitis virus, Huh-7
HSV2 = assay: Plaque reduction assay, HSV2 on A549 cells; format: cell-based, herpes simplex virus 2; conditions: Human alphaherpesvirus 2
TMEM41B = assay: Western blot of ER proteins in Huh-7 cells: TMEM41B; conditions: 6 μM PS1097, 48 h
CVB5 = assay: Plaque reduction assay, CVB5 on A549 cells; format: cell-based, Coxsackievirus B5; conditions: Enterovirus B, 95% CI in brackets
BVDV = conditions: previously published data; Na = no detected antiviral activity; ref [18]-[22] of main text, [3] of supplement for PS1086, PS1100, PS1101; cited from earlier work
SARS-CoV-2^Mi = assay: microbe, parasite or virus in culture; format: cell-based; conditions: Severe acute respiratory syndrome coronavirus 2; SARS-CoV-2^Mi (Vero TMPRSS); 95% CI in brackets
WNV = assay: microbe, parasite or virus in culture; format: cell-based; conditions: West Nile virus; WNV (Huh-7); 95% CI in brackets
ZIKV^Br [3] = assay: Virus yield reduction assay, ZIKV^Br on Huh-7 cells; format: cell-based, Zika virus
ZIKV^Br [4] = assay: Virus yield assay, ZIKV^Br on Vero TMPRSS cells; format: cell-based; conditions: Zika virus, 95% CI in brackets
ZIKV^Br [5] = system: ZIKV^Br
[6] = Cytotoxicity by WST-8, VeroE6 cells; format: cell-based; conditions: simian, 95% CI in brackets
Procedure: as §4

[7] = Cytotoxicity by WST-8, uninfected Huh-7 cells; conditions: human
ZIKV^Br [8] = assay: Virus yield assay, ZIKV^Br on A549 cells; format: cell-based; conditions: Zika virus, 95% CI in brackets
FAM134B = assay: Western blot of ER proteins in Huh-7 cells: FAM134B; conditions: 6 μM PS1097, 48 h
ZIKV^Br [9] = assay: Virus yield assay, ZIKV^Br on C6/36 cells; format: cell-based; conditions: Zika virus, 95% CI in brackets
USUV = assay: microbe, parasite or virus in culture; format: cell-based; conditions: Usutu virus; USUV (Huh-7); 95% CI in brackets
in vitro = conditions: simian
TOSV = assay: Plaque reduction assay, TOSV on VeroE6 cells; format: cell-based; conditions: Toscana virus, Vero C1008
ZIKV NS5 [10] = assay: ZIKV protein synthesis by western blot (NS5), Huh-7 cells; format: cell-based, Zika virus; conditions: MOI 1, 1x, 5x, 10x EC50 (PS1097 0.6, 3, 6 μM; SOF 1.5, 7.5, 15 μM), 48 h
Procedure: as §1, §2, §3

With O=c1[nH]c2cc3cccnc3c(Cl)c2nc1-c1cccs1 [PS1097, 5‐chloro‐3‐(thiophen‐2‐yl) pyrido[2,3‐g] quinoxalin‐2(1H)‐one] the EC50 (IAV) was over 50 µM, the “ZIKV protein content (NS5, western blot)” value (ZIKV NS5 [1]) was “consistently reduced protein levels” and the CC50 at 48 h [2] was 150 µM. The EC50 (VSV) was over 50 µM, the EC50 (HSV2) was over 50 µM and the “TMEM41B protein content (western blot)” value (TMEM41B) was “virtually unchanged”. For the same molecule, the EC50 (CVB5) was 4.47 µM, the EC50 (BVDV) was 5 µM and the EC50 (SARS-CoV-2^Mi) was 0.1 µM. For the same molecule, the EC50 (WNV) was 1.15 µM, the EC50 (ZIKV^Br [3]; ZIKV^Br on Huh-7 cells, viral yield reduction, 48 h, 95% confidence interval in brackets) was 0.69 µM and the EC50 (ZIKV^Br [3]; Zika virus, Huh-7, 48 h, ZIKV^Br on Huh-7 cells, viral yield reduction, 48 h, 95% confidence interval in brackets) was 0.6 µM. For the same molecule, the EC50 (ZIKV^Br [3]; Zika virus, Huh-7, summary value of the discussion for Flaviviruses, read-out: EC50 against Flaviviruses) was about 0.7 µM, the EC50 (ZIKV^Br [4]) was 2.66 µM and the “Selection of resistant ZIKV variants” value (ZIKV^Br [5]; ZIKV^Br passaged weekly on Huh-7 from 0.6 μM PS1097, at least four attempts) was “no resistant strains”. For the same molecule, the “Passage at which no viral yield was found” value (ZIKV^Br [5]; ZIKV^Br passaged weekly on Huh-7 in the presence of PS1097) was 9 passage, the CC50 at 48 h ([6]; VeroE6 cells, VeroE6 cells (TOSV row of Table 2)) was 575 µM and the CC50 at 48 h ([6]; VeroE6 cells (ZIKV^Br row of Table 2)) was 126 µM. For the same molecule, the CC50 at 48 h [7] was 229 µM, the EC50 (ZIKV^Br [8]) was 44.6 µM and the “FAM134B protein content (western blot)” value (FAM134B) was “virtually unchanged”. It also gave an EC50 (ZIKV^Br [9]) of 5.51 µM, an EC50 (USUV) of 0.86 µM and a CC50 (in vitro) of 86.2 µM. For the same molecule, the CC50 (in vitro; CC50, Vero TMPRSS cells (SARS-CoV-2^Mi row of Table 2), 95% CI in brackets) was 436 µM, the EC50 (TOSV) was over 50 µM and the “ZIKV protein expression (NS5, western blot)” value (ZIKV NS5 [10]) was “downregulated viral protein expression”.
